# Assays:
# Format in all cases: in vivo, rat
# Sprague Dawley rats [1] = assay: Lower lip retraction (LLR) in rats; conditions: for Mean LLR score (A) VEH: max score 3/rat
# Method: The experiments were performed on male Albino Swiss mice (23-25 g) and Sprague Dawley rats (200-250 g) from Charles River, Germany as well as […]-flx-YFP mice from Jackson Labs, Bangor ME and the Hen lab, respectively. The animals were kept under standard laboratory conditions with respect to lighting (light phase 7:00-19:00) and temperature (19-21 °C). Food and water were freely available. Each experimental group consisted of eight to ten animals. All of the animals were experimentally naive and were used only once in each test. The experiments were performed during the light period (9:00-14:00 h). All of the procedures were conducted according to the guidelines of the National Institutes of Health Animal Care and Use Committee and were approved by the Ethics Committees of the Institute of Pharmacology, Polish Academy of Sciences in Krakow and the Animal Care Committee, University of Ottawa. […] Controls were treated with the appropriate diluent, which was indicated as VEH on the graphs and in the tables. LLR was assessed according to the method described by Berendsen et al., [20]. The rats were individually placed in cages (30×25×25 cm) and were scored three times, 15, 30 and 45 min after the administration of Zn as follows: 0=lower incisors not visible, 0.5=partly visible and 1=completely visible. Zn was administered at doses of 2 and 5 mg Zn/kg (given as Zn hydroaspartate, Farmapol, Poland). The maximum total score was 3/rat. In addition, the effects of Zn and WAY-100635 (0.1 mg/kg; […] Sigma) were tested.
# Sprague Dawley rats [2] = assay: 5-HT behavioural syndrome (flat body posture, forepaw treading) in rats; conditions: for behavioural score FBP (A) VEH / behavioural score FT (A) VEH: max score 10
# Method: (§1) The experiments were performed on male Albino Swiss mice (23–25 g) and Sprague Dawley rats (200–250 g) from Charles River, Germany as well as TPH2-Cre-ER^T2 x flx-5-HT1A-flx-YFP mice from Jackson Labs, Bangor ME and the Hen lab, respectively. The animals were kept under standard laboratory conditions with respect to lighting (light phase 7:00–19:00) and temperature (19–21 °C). Food and water were freely available. Each experimental group consisted of eight to ten animals. All of the animals were experimentally naive and were used only once in each test. The experiments were performed during the light period (9:00–14:00 h). All of the procedures were conducted according to the guidelines of the National Institutes of Health Animal Care and Use Committee and were approved by the Ethics Committees of the Institute of Pharmacology, Polish Academy of Sciences in Krakow and the Animal Care Committee, University of Ottawa.
# Zn (all doses refer to mg Zn/kg) was given as either Zn hydroaspartate (Farmapol, Poland) or Zn chloride (Sigma-Aldrich) and was dissolved in 0.9 % NaCl and administered intraperitoneally (i.p.). 8-OH-DPAT and WAY-100635 were dissolved in aqua pro-injection and were administered subcutaneously (s.c.). Controls were treated with the appropriate diluent, which was indicated as VEH on the graphs and in the tables.
# The experiments were conducted according to previously published procedure, with a modification to the ranked intensity scale. Briefly, the rats were individually placed in cages (30×25×25 cm) 5 min before tested compounds were injected. Forepaw treading (FT) and flat body posture (FBP) were scored using a ranked intensity scale, where 0=absent, 1=equivocal and 2=present. The Zn (2, 5, 7.5 and 11.5 mg Zn/kg, given as a Zn hydroaspartate)-induced behavioural syndrome was scored for each animal 3, 6, 9, 12 and 15 min after the Zn treatment. Each observation session lasted for 45 s. The maximum score, which was summed over 5 observation periods, was 10 for each symptom/rat. The effect of Zn on the behavioural syndrome induced by 8-OH-DPAT (5 mg/kg) was scored using the same scale. Zn was administered 60 min before 8-OH-DPAT, and the animals were scored 3, 6, 9, 12 and 15 min after the 8-OH-DPAT treatment.
# Body temperature in rats = conditions: Zn: 30 min at 7.5 and 11.5 mg/kg, 60 min at 5, 7.5 and 11.5 mg/kg
# Method: as §1, with “Ottawa. […]” for “Ottawa.”
# The effects of Zn (2, 5, 7.5 and 11.5 mg Zn/kg for rats and 2 and 5 mg/kg for mice, given as a Zn hydroaspartate), 8-OH-DPAT (5 mg/kg) and WAY-100635 (0.1mg/kg) on rectal body temperature were recorded 30 and 60 min after their acute administration. The results were expressed as a change in body temperature with respect to the basal body temperature, which was measured at the beginning of the experiments.
# [3] = Zn 2 mg/kg 60 min before 8-OH-DPAT 5 mg/kg
# [4] = Zn 5 mg/kg 60 min before 8-OH-DPAT 5 mg/kg
# [5] = Zn 7.5 mg/kg 60 min before 8-OH-DPAT 5 mg/kg
# [6] = Zn 11.5 mg/kg 60 min before 8-OH-DPAT 5 mg/kg
smiles,measurement,setting,value
"[Zn+2] [Zn, Zinc]",Mean LLR score (A) VEH,Sprague Dawley rats [1]; Zn 2 mg Zn/kg i.p. alone,0.0±0.0
same,Mean LLR score (B) 8-OH-DPAT 1 mg/kg,Sprague Dawley rats [1]; Zn 2 mg/kg 45 min before 8-OH-DPAT 1 mg/kg,1.17±0.98
same,Mean LLR score (A) VEH,Sprague Dawley rats [1]; Zn 5 mg Zn/kg i.p. alone,0.0±0.0
same,Mean LLR score (B) 8-OH-DPAT 1 mg/kg,Sprague Dawley rats [1]; Zn 5 mg/kg 45 min before 8-OH-DPAT 1 mg/kg,0.46±0.75
same,effect on LLR induced by 8-OH-DPAT (in words),Sprague Dawley rats [1]; Zn 2 and 5 mg/kg or WAY-100635 0.1 mg/kg before 8-OH-DPAT 1 mg/kg,blocked the LLR induced by 8-OH-DPAT
same,induction of LLR (in words),"Sprague Dawley rats [1]; given alone: 8-OH-DPAT 1 mg/kg, Zn 2 and 5 mg/kg, WAY-100635 0.1 mg/kg",did not evoke LLR
same,effect on 8-OH-DPAT-induced FBP and FT (in words),"Sprague Dawley rats [2]; FBP at 11.5 mg/kg, FT at 7.5 and 11.5 mg/kg Zn",blocked the 8-OH-DPAT-induced FBP and FT
same,behavioural score FBP (B) 8-OH-DPAT,Sprague Dawley rats [2]; [3],7.7±0.3
same,behavioural score FT (B) 8-OH-DPAT,Sprague Dawley rats [2]; [3],7.1±0.6
same,behavioural score FBP (A) VEH,Sprague Dawley rats [2]; Zn 2 mg/kg alone,0.2±0.2
same,behavioural score FT (A) VEH,Sprague Dawley rats [2]; Zn 2 mg/kg alone,0.3±0.2
same,behavioural score FBP (B) 8-OH-DPAT,Sprague Dawley rats [2]; [4],7.5±0.8
same,behavioural score FT (B) 8-OH-DPAT,Sprague Dawley rats [2]; [4],7.5±0.5
same,behavioural score FBP (A) VEH,Sprague Dawley rats [2]; Zn 5 mg/kg alone,0.3±0.3
same,behavioural score FT (A) VEH,Sprague Dawley rats [2]; Zn 5 mg/kg alone,0.2±0.2
same,behavioural score FBP (B) 8-OH-DPAT,Sprague Dawley rats [2]; [5],7.0±0.3
same,behavioural score FT (B) 8-OH-DPAT,Sprague Dawley rats [2]; [5],5.0±0.6
same,behavioural score FBP (A) VEH,Sprague Dawley rats [2]; Zn 7.5 mg/kg alone,0.5±0.5
same,behavioural score FT (A) VEH,Sprague Dawley rats [2]; Zn 7.5 mg/kg alone,0.2±0.2
same,behavioural score FBP (B) 8-OH-DPAT,Sprague Dawley rats [2]; [6],3.4±0.6
same,behavioural score FT (B) 8-OH-DPAT,Sprague Dawley rats [2]; [6],0.4±0.2
same,behavioural score FBP (A) VEH,Sprague Dawley rats [2]; Zn 11.5 mg/kg alone,0.5±0.2
same,behavioural score FT (A) VEH,Sprague Dawley rats [2]; Zn 11.5 mg/kg alone,0.2±0.2
same,induction of FBP or FT (in words),"Sprague Dawley rats [2]; Zn 2, 5, 7.5 and 11.5 mg/kg alone",did not induce FBP or FT
same,change in body temperature,Body temperature in rats,significantly decreased the body temperature

# Reference: PMC5104769, “Concentration-Dependent Dual Mode of Zn Action at Serotonin 5-HT1A Receptors: In Vitro and In Vivo Studies” (Molecular neurobiology, 2015)
